From ChEMBL document CHEMBL2311280, “Protein tyrosine phosphatase 1B inhibitory effect by dammarane-type triterpenes from hydrolyzate of total Gynostemma pentaphyllum saponins” (Bioorg Med Chem Lett, 2013)

biological target: T1, Tyrosine-protein phosphatase non-receptor type 1 (Homo sapiens, UniProt P18031); experiment: Inhibition of PTP1B (unknown origin)
T1 sequence (P18031 whole entry): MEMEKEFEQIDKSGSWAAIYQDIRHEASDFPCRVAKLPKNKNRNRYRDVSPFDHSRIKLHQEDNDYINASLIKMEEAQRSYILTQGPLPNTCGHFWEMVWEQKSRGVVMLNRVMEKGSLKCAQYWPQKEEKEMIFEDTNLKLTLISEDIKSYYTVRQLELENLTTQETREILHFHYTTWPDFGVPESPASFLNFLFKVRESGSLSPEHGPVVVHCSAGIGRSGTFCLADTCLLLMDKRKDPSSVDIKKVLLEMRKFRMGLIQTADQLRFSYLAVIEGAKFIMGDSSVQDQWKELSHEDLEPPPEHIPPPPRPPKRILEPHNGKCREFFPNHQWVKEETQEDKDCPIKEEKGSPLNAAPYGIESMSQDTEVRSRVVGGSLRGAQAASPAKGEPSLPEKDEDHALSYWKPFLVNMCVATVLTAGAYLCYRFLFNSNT

**Q.** Which IC50 does the source give for `C=C(C)CCC[C@](C)(O)[C@H]1CC[C@]2(C)[C@@H]1[C@H](O)C[C@@H]1[C@@]3(C)CC[C@H](O)C(C)(C)[C@@H]3CC[C@]12C` here?
**A.** Its IC50 is over 50 µM.

**Q.** How did the IC50 turn out when `CC(C)=C1CC([C@H]2CC[C@]3(C)[C@@H]2CC[C@@H]2C4=C(CC[C@]23C)C(C)(C)[C@@H]2CC[C@H]4O2)=CC1=O` [GYPENSAPOGENIN B] was run?
**A.** The IC50 was 24.5 µM.

**Q.** With `CC(C)(O)C[C@H]1C=C([C@H]2CC[C@]3(C)[C@@H]2CC[C@@H]2[C@@]4(C)CC[C@H](O)C(C)(C)[C@@H]4CC[C@]23C)C(=O)O1` [GYPENSAPOGENIN E] as the molecule, how does the IC50 read?
**A.** Its IC50 is 23 µM.

**Q.** How did the IC50 turn out when `CC(C)=CCC[C@@](O)(CO)[C@H]1CC[C@]2(C)[C@@H]1CC[C@@H]1[C@@]3(C)CC[C@H](O)C(C)(C)[C@@H]3CC[C@]12C` was run?
**A.** The IC50 was 15.2 µM.

**Q.** How did the IC50 turn out when `CC(C)=C1CC=C([C@H]2CC[C@]3(C)[C@@H]2CC[C@@H]2[C@@]4(C)CC[C@H](O)C(C)(C)[C@@H]4CC[C@]23C)C1=O` [GYPENSAPOGENIN C] was run?
**A.** Its IC50 is over 50 µM.

**Q.** Which IC50 does the source give for `CC(C)(O)C[C@@H]1C=C([C@H]2CC[C@]3(C)[C@@H]2CC[C@@H]2[C@@]4(C)CC[C@H](O)C(C)(C)[C@@H]4CC[C@]23C)C(=O)O1` [GYPENSAPOGENIN F] here?
**A.** Its IC50 is 49 µM.

**Q.** With `C/C(=C/CCC(C)(C)O)[C@H]1CC[C@]2(C)[C@@H]1[C@H](O)C[C@@H]1[C@@]3(C)CC[C@H](O)C(C)(C)[C@@H]3CC[C@]12C` as the molecule, how does the IC50 read?
**A.** The IC50 was over 50 µM.

**Q.** For `CC1(C)[C@@H](O)CC[C@]2(C)[C@H]3CC[C@@H]4[C@@H](C(=O)O)CC[C@@]4(C)[C@]3(C)CC[C@@H]12`, which IC50 is on record?
**A.** Its IC50 is 13.1 µM.

**Q.** For `CC(=O)O[C@H]1CC[C@]2(C)[C@H]3CC[C@@H]4[C@@H](C5=C[C@H](CC(C)(C)O)OC5=O)CC[C@@]4(C)[C@]3(C)CC[C@H]2C1(C)C` [GYPENSAPOGENIN G], which IC50 is on record?
**A.** The IC50 was 24.5 µM.

**Q.** For `C=C(C)[C@@H](O)CC[C@](C)(O)[C@H]1CC[C@]2(C)[C@@H]1[C@H](O)C[C@@H]1[C@@]3(C)CC[C@H](O)C(C)(C)[C@@H]3CC[C@]12C`, which IC50 is on record?
**A.** The IC50 was over 50 µM.

**Q.** How did the IC50 turn out when `CC(C)=CCC[C@](C)(O)[C@H]1CC[C@]2(C)[C@@H]1[C@H](O)C[C@@H]1[C@@]3(C)CC[C@H](O)C(C)(C)[C@@H]3CC[C@]12C` was run?
**A.** Its IC50 is 23.6 µM.

**Q.** How did the IC50 turn out when `CC(C)=C[C@H]1C[C@@](O)([C@H]2CC[C@]3(C)[C@@H]2CC[C@@H]2[C@@]4(C)CC[C@H](O)C(C)(C)[C@@H]4CC[C@]23C)C(=O)O1` was run?
**A.** Its IC50 is 8.4 µM.

**Q.** Which IC50 does the source give for `CC(C)=C[C@@H]1C[C@](O)([C@H]2CC[C@]3(C)[C@@H]2CC[C@@H]2[C@@]4(C)CC[C@H](O)C(C)(C)[C@@H]4CC[C@]23C)C(=O)O1` here?
**A.** The IC50 was 27.8 µM.

**Q.** How did the IC50 turn out when `CC(C)=C[C@H]1C=C([C@H]2CC[C@]3(C)[C@@H]2CC[C@@H]2[C@@]4(C)CC[C@H](O)C(C)(C)[C@@H]4CC[C@]23C)C(=O)O1` [GYPENSAPOGENIN D] was run?
**A.** The IC50 was over 50 µM.
